Measurements: patent US7135466B2 (Kirin Beer Kabushiki Kaisha, priority 1999, dated 2006)
Where two headings read alike, the source gives them in different places.

Key:
c-kit = target: T1, c-kit (Homo sapiens, UniProt P10721); assay: Inhibitory activity against c-kit autophosphorylation (MO7e cells, h-SCF); assay type: cell-based; conditions: for IC50: MO7e cells, read-out: c-kit IC50; for inhibition at 1 µM: Mo7e, at 1000 nM
T1 construct: MO7e (human megakaryocytic leukemia cell line) which had been arrested for 20 hr; endogenous in cells; host or cells: MO7e human megakaryocytic leukemia cell line
T1 sequence (P10721 26-976): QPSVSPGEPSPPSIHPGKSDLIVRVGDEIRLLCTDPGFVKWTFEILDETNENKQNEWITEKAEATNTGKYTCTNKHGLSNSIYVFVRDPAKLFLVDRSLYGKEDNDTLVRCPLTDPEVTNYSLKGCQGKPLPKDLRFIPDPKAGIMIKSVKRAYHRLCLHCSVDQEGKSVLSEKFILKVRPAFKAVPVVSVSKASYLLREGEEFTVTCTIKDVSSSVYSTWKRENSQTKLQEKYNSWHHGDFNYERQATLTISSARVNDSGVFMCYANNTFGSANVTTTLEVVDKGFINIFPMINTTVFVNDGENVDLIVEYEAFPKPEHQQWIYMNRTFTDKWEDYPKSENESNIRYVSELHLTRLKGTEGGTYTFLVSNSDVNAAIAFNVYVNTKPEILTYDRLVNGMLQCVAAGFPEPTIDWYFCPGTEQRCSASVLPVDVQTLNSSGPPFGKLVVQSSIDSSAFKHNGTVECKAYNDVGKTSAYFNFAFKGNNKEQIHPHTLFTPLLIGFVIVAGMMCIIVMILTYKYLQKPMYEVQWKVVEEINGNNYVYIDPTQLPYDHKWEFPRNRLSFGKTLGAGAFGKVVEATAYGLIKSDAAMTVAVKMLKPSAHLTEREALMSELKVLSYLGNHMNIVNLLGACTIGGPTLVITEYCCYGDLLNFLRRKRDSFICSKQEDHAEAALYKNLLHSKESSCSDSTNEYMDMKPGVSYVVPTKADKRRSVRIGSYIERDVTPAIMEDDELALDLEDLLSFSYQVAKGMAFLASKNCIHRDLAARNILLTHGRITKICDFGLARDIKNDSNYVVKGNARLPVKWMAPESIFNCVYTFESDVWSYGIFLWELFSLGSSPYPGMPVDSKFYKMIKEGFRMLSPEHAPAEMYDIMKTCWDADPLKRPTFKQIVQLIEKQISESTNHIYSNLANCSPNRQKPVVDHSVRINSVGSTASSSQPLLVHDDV
Summary of the method: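 MO7e human megakaryocytic leukemia cells, arrested 20 hr, treated with compound 1 hr, then stimulated with 50 ng/ml h-SCF for 5 min and lysed. Lysates captured on immobilized anti-phosphotyrosine antibody, detected with anti-c-kit primary and HRP secondary antibody; absorbance at 450 nm.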

PDGF-Ra = target: T2, PDGF-Ra (Homo sapiens, UniProt P16234); assay: Inhibitory activity against PDGF-Ra phosphorylation by PDGF-AA stimulation using G292; assay type: cell-based; conditions: for IC50: > means inhibition at indicated concentration not more than 50%, < and << not less than 50%, read-out: PDGF (E) IC50; for inhibition at 0.1 µM: G292, read-out: PDGF (E) inhibition (%) at 100 nM
T2 construct: host or cells: G-292 human osteosarcoma cells
T2 sequence (P16234 24-1089): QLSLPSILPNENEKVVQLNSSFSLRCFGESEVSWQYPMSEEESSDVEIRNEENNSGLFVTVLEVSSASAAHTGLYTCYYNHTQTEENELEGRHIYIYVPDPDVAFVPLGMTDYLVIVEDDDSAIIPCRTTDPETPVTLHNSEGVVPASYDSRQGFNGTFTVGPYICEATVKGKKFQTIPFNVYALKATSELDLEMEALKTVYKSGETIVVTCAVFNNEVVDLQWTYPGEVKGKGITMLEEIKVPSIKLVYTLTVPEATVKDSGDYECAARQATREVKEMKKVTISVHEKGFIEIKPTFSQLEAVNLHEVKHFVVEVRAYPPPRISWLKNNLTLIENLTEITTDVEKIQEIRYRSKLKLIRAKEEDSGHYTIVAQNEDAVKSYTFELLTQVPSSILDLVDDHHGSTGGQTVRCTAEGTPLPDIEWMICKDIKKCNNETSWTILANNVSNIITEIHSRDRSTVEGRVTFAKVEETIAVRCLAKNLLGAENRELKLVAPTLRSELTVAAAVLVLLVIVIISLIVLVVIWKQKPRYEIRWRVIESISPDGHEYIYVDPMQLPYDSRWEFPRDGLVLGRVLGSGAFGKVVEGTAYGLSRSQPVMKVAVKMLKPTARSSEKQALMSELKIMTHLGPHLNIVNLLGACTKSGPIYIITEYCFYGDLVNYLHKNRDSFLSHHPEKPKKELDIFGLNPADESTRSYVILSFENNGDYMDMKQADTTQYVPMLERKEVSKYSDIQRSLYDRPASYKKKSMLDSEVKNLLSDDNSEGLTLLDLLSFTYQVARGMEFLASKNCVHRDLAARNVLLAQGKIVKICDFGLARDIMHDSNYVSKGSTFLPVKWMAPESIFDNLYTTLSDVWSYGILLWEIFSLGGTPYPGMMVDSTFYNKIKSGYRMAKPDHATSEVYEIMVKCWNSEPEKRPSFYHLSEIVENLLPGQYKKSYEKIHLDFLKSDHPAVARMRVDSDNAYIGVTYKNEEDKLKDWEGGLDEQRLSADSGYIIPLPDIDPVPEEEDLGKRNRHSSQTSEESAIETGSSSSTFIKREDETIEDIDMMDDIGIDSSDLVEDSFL
Summary of the method: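 G-292 human osteosarcoma cells, serum-starved overnight in 0.1% FBS, were pretreated with compound in DMSO for 1 hr at 37 °C, then stimulated with 50 ng/ml PDGF-AA for 5 min. Lysates were captured on anti-phosphotyrosine PY-20 plates and probed with anti-PDGF-Ra plus HRP secondary; absorbance read at 450 nm.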

[1] = figure within parentheses in −( ) or >1000( )
[2] = figure within parentheses in >100( ), at 100 nM
[3] = figure in parentheses in >100( ), at 100 nM

SMILES	IC50 (c-kit; h-SCF 50 ng/ml)	IC50 (PDGF-Ra; Pharmacological Test Example 1)	IC50 (PDGF-Ra)	further results
COc1cc2nccc(Oc3ccc(NC(=O)OC(C)c4ccccc4Br)cc3)c2cc1OC (stereo not drawn) [Example 112, 1-(2-Bromophenyl)ethyl N-{4-[(6,7-dimethoxy-4-quinolyl)oxy]phenyl}carbamate]	214 nM	16 nM	–	–
COc1cc2nccc(Oc3ccc(NC(=O)Oc4ccc(C(C)(C)C)cc4)cc3)c2cc1OC [Example 259, 4-(Tert-butyl)phenyl N-{4-[(6,7-dimethoxy-4-quinolyl)oxy]phenyl}carbamate]	184 nM	34 nM	–	–
COc1cc2nccc(Oc3ccc(NC(=O)Sc4ccc(Cl)cc4C)cc3)c2cc1OC [Example 176, 4-Chloro-2-methylphenyl{4-[(6,7-dimethoxy-4-quinolyl)oxy]anilino}methanethioate]	< 30 nM	20 nM	–	–
CCCCOc1ccc(C(=O)NC(=S)Nc2ccc(Oc3ccnc4cc(OC)c(OC)cc34)cc2)cc1 [Example 751, N-(4-Butoxybenzoyl)-N′-{4-[(6,7-dimethoxy-4-quinolyl)oxy]phenyl}thiourea]	–	–	70 nM	inhibition at 1 µM (c-kit; [1]): 23%
COc1cc2nccc(Oc3ccc(NC(=O)Sc4ccc(Cl)cc4C)c(C)c3C)c2cc1OC [Example 177, 4-Chloro-2-methylphenyl{4-[(6,7-dimethoxy-4-quinolyl)oxy]-2,3-dimethylanilino}methanethioate]	< 30 nM	19 nM	–	–
COc1cc2ncnc(Oc3ccc(NC(=O)NC4CCN(Cc5ccccc5)CC4)cc3)c2cc1OC [Example 591, N-{4-[(6,7-Dimethoxy-4-quinazolinyl)oxy]phenyl}-N′-[4-(N-benzyl)piperidinyl]urea]	–	–	33 nM	IC50 (c-kit; 50 ng/ml h-SCF): 117 nM
CCCC(CCC)OC(=O)Nc1cc(C)c(Oc2ccnc3cc(OC)c(OC)cc23)cc1C [Example 333, 1-Propylbutyl N-{4-[(6,7-dimethoxy-4-quinolyl)oxy]-2,5-dimethylphenyl}carbamate]	712 nM	12 nM	–	–
COc1cc2ncnc(Oc3ccc(NC(=O)Oc4ccccc4OC)cc3)c2cc1OC [Example 403, 2-Methoxyphenyl N-{4-[(6,7-dimethoxy-4-quinazolinyl)oxy]phenyl}carbamate]	–	–	14 nM	IC50 (c-kit; 50 ng/ml h-SCF): 93 nM
COc1cc2nccc(Oc3ccc(NC(=O)OCCN4CCCCC4)c(C)c3C)c2cc1OC [Example 305, 2-Piperidinoethyl N-{4-[(6,7-dimethoxy-4-quinolyl)oxy]-2,3-dimethylphenyl}carbamate]	221 nM	11 nM	–	–
COc1cc2ncnc(Oc3cc(C)c(NC(=O)OC4CCCCC4)cc3C)c2cc1OC [Example 390, Cyclohexyl N-{4-[(6,7-dimethoxy-4-quinazolinyl)oxy]-2,5-dimethylphenyl}carbamate]	400 nM	33 nM	–	–
COc1cc2ncnc(Oc3ccc(NC(=O)NCCN(C(C)C)C(C)C)c(Cl)c3)c2cc1OC [Example 657, N-{2-Chloro-4-[(6,7-dimethoxy-4-quinazolinyl)oxy]phenyl}-N′-[2-(diisopropylamino)ethyl]urea]	–	–	40 nM	inhibition at 1 µM (c-kit; [1]): 27%
COc1cc2ncnc(Oc3ccc(NC(=S)NCCN4CCOCC4)cc3)c2cc1OC [Example 527, N-{4-[(6,7-Dimethoxy-4-quinazolinyl)oxy]phenyl}-N′-[2-(1-morpholinyl)ethyl]thiourea]	–	–	65 nM	IC50 (c-kit; 50 ng/ml h-SCF): 875 nM
COc1cc2nccc(Oc3cc(C)c(NC(=S)NCCCn4ccnc4)cc3C)c2cc1OC [Example 539]	–	–	> 100 nM	IC50 (c-kit; 50 ng/ml h-SCF): 415 nM; PDGF (E) inhibition (%) at 100 nM (PDGF-Ra; [2]): 45%
COc1cc2ncnc(Oc3ccc(NC(=O)OCc4ccccc4C)cc3)c2cc1OC [Example 319, 2-Methylbenzyl N-{4-[(6,7-dimethoxy-4-quinazolinyl)oxy]phenyl}carbamate]	98 nM	< 10 nM	–	–
COc1cc2nccc(Oc3ccc(NC(=S)NC(=O)C4C(C)(C)C4(C)C)cc3Cl)c2cc1OC [Example 760, N-{3-Chloro-4-[(6,7-dimethoxy-4-quinolyl)oxy]phenyl}-N′-[(2,2,3,3-tetramethylcyclopropyl)carbonyl]thiourea]	–	–	83 nM	inhibition at 1 µM (c-kit; [1]): 48%
COc1cc2nccc(Oc3ccc(NC(=O)OC4CCCC4)cc3)c2cc1OC [Example 363, Cyclopentyl N-{4-[(6,7-dimethoxy-4-quinolyl)oxy]phenyl}carbamate]	72 nM	< 10 nM	–	–
COc1cc(Oc2ncnc3cc(OC)c(OC)cc23)ccc1NC(=O)OC1CCCCC1 [Example 497, Cyclohexyl N-{4-[(6,7-dimethoxy-4-quinazolinyl)oxy]-2-methoxyphenyl}carbamate]	–	–	< 10 nM	IC50 (c-kit; 50 ng/ml h-SCF): 82 nM
COc1cc2nccc(Oc3ccc(NC(=O)OC(C)c4ccc(C)cc4)c(C)c3C)c2cc1OC (stereo not drawn) [Example 133, 1-(4-Methylphenyl)ethyl N-{4-[(6,7-dimethoxy-4-quinolyl)oxy]-2,3-dimethylphenyl}carbamate]	206 nM	26 nM	–	–
COc1cc2ncnc(Oc3ccc(NC(=O)OCc4ccccc4Cl)cc3)c2cc1OC [Example 317, 2-Chlorobenzyl N-{4-[(6,7-dimethoxy-4-quinazolinyl)oxy]phenyl}carbamate]	136 nM	< 10 nM	–	–

Now from value to molecule, other results behind:

IC50 (c-kit; h-SCF 50 ng/ml)	IC50 (PDGF-Ra; Pharmacological Test Example 1)	IC50 (PDGF-Ra)	SMILES	further results
–	–	< 3 nM	COc1cc2nccc(Oc3ccc(OCCCOc4ccc(C)cc4)cc3)c2cc1OC [Example 790, 6,7-Dimethoxy-4-{4-[3-(4-methylphenoxy)propoxy]phenoxy}quinoline]	IC50 (c-kit; 50 ng/ml h-SCF): 107 nM
–	–	37 nM	COc1cc2ncnc(Oc3ccc(OCC(=O)N4CCC(Cc5ccccc5)CC4)cc3)c2cc1OC [Example 804, 1-(4-Benzylpiperidino)-2-{4-[(6,7-dimethoxy-4-quinazolinyl)oxy]phenoxy}-1-ethanone]	inhibition at 1 µM (c-kit; [1]): 20%
–	–	29 nM	COc1ccccc1CC(=O)NC(=S)Nc1ccc(Oc2ccnc3cc(OC)c(OC)cc23)c(Cl)c1 [Example 734, N-{3-Chloro-4-[(6,7-dimethoxy-4-quinolyl)oxy]phenyl}-N′-[2-(2-methoxyphenyl)acetyl]thiourea]	IC50 (c-kit; 50 ng/ml h-SCF): 216 nM
–	–	19 nM	COc1cc2nccc(Oc3ccc(NC(=S)NC(=O)c4ccc(-c5ccccc5)cc4)cc3F)c2cc1OC [Example 991, N-{4-[(6,7-Dimethoxy-4-quinolyl)oxy]-3-fluorophenyl}-N′-(4-phenylbenzoyl)thiourea]	inhibition at 1 µM (c-kit; figure in parentheses in −( )): 20%
–	–	9 nM	CCc1ccc(C(=O)NC(=S)Nc2ccc(Oc3ccnc4cc(OC)c(OC)cc34)c(F)c2)cc1 [Example 997, N-{4-[(6,7-Dimethoxy-4-quinolyl)oxy]-3-fluorophenyl}-N′-(4-ethylbenzoyl)thiourea]	IC50 (c-kit; h-SCF stimulation): 264 nM
–	–	> 100 nM	COc1cc2nccc(Oc3ccc(NC(=S)NC(=O)Cc4ccc5ccccc5c4)cc3Cl)c2cc1OC [Example 710, N-{3-Chloro-4-[(6,7-dimethoxy-4-quinolyl)oxy]phenyl}-N′-[2-(2-naphthyl)acetyl]thiourea]	inhibition at 1 µM (c-kit; [1]): 30%; inhibition at 0.1 µM (PDGF-Ra; [2]): 33%
–	–	< 10 nM	CCN(CCNC(=O)Nc1ccc(Oc2ncnc3cc(OC)c(OC)cc23)cc1[N+](=O)[O-])c1cccc(C)c1 [Example 667, N-{4-[(6,7-Dimethoxy-4-quinazolinyl)oxy]-2-nitrophenyl}-N′-[2-(ethyl-3-methylanilino)ethyl]urea]	IC50 (c-kit; 50 ng/ml h-SCF): 100 nM
–	–	> 100 nM	COc1cc2ncnc(Oc3ccc(NC(=S)NC(=O)c4ccccn4)cc3)c2cc1OC [Example 1156, N-{4-[(6,7-Dimethoxy-4-quinazolinyl)oxy]phenyl}-N′-(2-pyridylcarbonyl)thiourea]	inhibition at 1 µM (c-kit; figure in parentheses in −( )): 28%; inhibition at 0.1 µM (PDGF-Ra; [3]): 35%
–	–	18 nM	COc1ccc(C(=O)NC(=S)Nc2ccc(Oc3ccnc4cc(OC)c(OC)cc34)c(Cl)c2)cc1OC [Example 1204, N-{3-Chloro-4-[(6,7-dimethoxy-4-quinolyl)oxy]phenyl}-N′-(3,4-dimethoxybenzoyl)thiourea]	IC50 (c-kit; h-SCF stimulation): 434 nM
–	–	51 nM	COc1cc2ncnc(Oc3ccc(N)c(N4CCOCC4)c3)c2cc1OC [Example 1150]	IC50 (c-kit; h-SCF stimulation): 192 nM
–	–	> 100 nM	COc1cc2nccc(Oc3ccc(NC(=S)NC(=O)c4ccc(Cl)s4)c(C)c3)c2cc1OC [Example 694, N-[(5-Chloro-2-thienyl)carbonyl]-N′-{4[(6,7-dimethoxy-4-quinolyl)oxy]-2-methylphenyl}thiourea]	inhibition at 1 µM (c-kit; [1]): 37%; inhibition at 0.1 µM (PDGF-Ra; [2]): 12%
–	–	> 100 nM	COc1cc2nccc(Oc3ccc(NC(=S)NC(=O)c4ccccc4)c(Cl)c3)c2cc1OC [Example 1107, N-Benzoyl-N′-{2-chloro-4-[(6,7-dimethoxy-4-quinolyl)oxy]phenyl}thiourea]	inhibition at 1 µM (c-kit; figure in parentheses in −( )): 24%; inhibition at 0.1 µM (PDGF-Ra; [3]): 46%
–	–	50 nM	COc1cc2nccc(Oc3ccc(NC(=S)NC(=O)c4ccc(F)cc4F)c(Cl)c3)c2cc1OC [Example 1202, N-{2-Chloro-4-[(6,7-dimethoxy-4-quinolyl)oxy]phenyl}-N′-(2,4-difluorobenzoyl)thiourea]	inhibition at 1 µM (c-kit; figure in parentheses in −( )): 15%
